In ChEMBL document CHEMBL1152287, “Structure-activity relationships of acetylcholinesterase noncovalent inhibitors based on a polyamine backbone. 4. Further investigation on the inner spacer” (J Med Chem, 2008):
pIC50: −log10 of the molar value.

Legend:
[1] = target: T1, Amyloid-beta precursor protein (Homo sapiens, UniProt P05067); experiment: Inhibition of self-induced amyloid beta (1-40) aggregation at 10 uM by thioflavin T formation assay
[2] = target: Acetylcholinesterase (Homo sapiens, UniProt P22303); experiment: Inhibition of human recombinant AChE by Ellman's assay
Chain of Acetylcholinesterase (P22303 whole entry): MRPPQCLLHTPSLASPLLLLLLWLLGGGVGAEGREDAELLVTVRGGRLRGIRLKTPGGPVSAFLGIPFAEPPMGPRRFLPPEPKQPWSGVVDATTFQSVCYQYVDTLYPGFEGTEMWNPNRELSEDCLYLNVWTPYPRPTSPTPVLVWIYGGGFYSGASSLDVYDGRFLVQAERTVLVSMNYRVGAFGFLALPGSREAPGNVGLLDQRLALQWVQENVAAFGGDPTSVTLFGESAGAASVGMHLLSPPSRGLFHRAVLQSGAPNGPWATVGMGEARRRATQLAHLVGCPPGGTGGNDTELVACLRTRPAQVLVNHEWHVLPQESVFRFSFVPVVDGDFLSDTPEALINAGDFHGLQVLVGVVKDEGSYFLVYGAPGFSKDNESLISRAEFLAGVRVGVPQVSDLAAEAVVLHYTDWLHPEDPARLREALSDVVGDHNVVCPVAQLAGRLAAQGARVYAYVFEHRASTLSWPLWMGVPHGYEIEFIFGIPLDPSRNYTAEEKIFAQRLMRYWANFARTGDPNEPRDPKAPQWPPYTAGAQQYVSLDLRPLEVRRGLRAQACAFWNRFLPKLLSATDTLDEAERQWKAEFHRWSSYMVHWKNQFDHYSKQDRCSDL

[3] = target: Cholinesterase (Homo sapiens, UniProt P06276); experiment: Inhibition of human serum BChE by Ellman's assay
Chain of Cholinesterase (P06276 whole entry): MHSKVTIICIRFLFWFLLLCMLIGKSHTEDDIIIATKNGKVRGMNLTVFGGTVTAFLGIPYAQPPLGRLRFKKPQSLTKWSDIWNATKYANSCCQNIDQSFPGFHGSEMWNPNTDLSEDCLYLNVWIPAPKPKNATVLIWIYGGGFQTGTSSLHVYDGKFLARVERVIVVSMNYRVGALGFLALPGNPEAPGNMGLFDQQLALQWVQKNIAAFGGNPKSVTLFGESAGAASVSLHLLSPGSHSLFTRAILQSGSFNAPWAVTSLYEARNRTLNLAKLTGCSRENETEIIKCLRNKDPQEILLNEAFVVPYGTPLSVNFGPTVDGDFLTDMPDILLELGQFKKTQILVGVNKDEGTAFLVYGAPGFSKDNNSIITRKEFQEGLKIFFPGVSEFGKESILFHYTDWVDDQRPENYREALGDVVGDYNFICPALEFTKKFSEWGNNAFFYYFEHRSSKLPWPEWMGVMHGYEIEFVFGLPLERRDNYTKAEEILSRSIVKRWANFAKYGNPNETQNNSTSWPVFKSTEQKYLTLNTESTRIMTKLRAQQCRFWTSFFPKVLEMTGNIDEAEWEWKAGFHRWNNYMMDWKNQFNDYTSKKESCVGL

[4] = target: T1, Amyloid-beta precursor protein; experiment: Inhibition of self-induced amyloid beta (1-40) aggregation by thioflavin T formation assay

T1 sequence (P05067 whole entry): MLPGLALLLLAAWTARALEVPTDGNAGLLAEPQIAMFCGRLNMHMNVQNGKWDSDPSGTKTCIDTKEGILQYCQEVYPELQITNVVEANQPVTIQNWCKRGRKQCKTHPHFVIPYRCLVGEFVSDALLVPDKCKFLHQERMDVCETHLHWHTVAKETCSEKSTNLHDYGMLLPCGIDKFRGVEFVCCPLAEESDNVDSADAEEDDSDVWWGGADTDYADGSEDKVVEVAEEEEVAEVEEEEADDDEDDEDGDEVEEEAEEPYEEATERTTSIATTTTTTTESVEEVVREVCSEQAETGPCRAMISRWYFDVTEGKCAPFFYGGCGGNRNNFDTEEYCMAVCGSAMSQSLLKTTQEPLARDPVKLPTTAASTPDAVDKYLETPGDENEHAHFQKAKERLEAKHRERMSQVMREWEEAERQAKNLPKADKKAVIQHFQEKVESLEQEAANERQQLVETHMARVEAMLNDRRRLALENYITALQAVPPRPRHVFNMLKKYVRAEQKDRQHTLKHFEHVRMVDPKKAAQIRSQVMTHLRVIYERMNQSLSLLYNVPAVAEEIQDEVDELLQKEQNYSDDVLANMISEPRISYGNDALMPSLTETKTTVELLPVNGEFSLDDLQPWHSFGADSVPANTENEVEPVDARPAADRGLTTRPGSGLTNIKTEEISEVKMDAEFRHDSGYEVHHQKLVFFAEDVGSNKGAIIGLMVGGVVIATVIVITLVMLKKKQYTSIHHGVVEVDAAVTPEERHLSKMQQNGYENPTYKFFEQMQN

In the case of `CCN(CCCCCCN1CC(=O)N(CCCCCCN(CC)Cc2ccccc2OC)CC1=O)Cc1ccccc1OC`, the inhibition [1] was 4.8%, the pIC50 [2] was 7.80 and the pIC50 [3] was 5.68.
With `CCN(CCCCCC(=O)N[C@H]1CCCC[C@@H]1NC(=O)CCCCCN(CC)Cc1ccccc1OC)Cc1ccccc1OC` (racemic) the pIC50 [2] was 5.26 and the pIC50 [3] was 4.43.
Work on `CCN(CCCCCCn1c(=O)c2cc3c(=O)n(CCCCCCN(CC)Cc4ccccc4OC)c(=O)c3cc2c1=O)Cc1ccccc1OC` yielded an inhibition [1] of less than 5%, a pIC50 [2] of 8.11 and a pIC50 [3] of 5.52.
Molecule `CCN(CCCCCCn1c(=O)c(=O)n(CCCCCCN(CC)Cc2ccccc2OC)c2ccccc21)Cc1ccccc1OC` has an inhibition [1] of 8.8%, a pIC50 [2] of 8.85 and a pIC50 [3] of 7.02.
For `COc1ccccc1CN(C)CCCCCC(=O)N(C)CCCCCCCCN(C)C(=O)CCCCCN(C)Cc1ccccc1OC`, the inhibition [1] was 20.3%.
`CCN(CCCCCCN1C(=O)c2ccc3c4c(ccc(c24)C1=O)C(=O)N(CCCCCCN(CC)Cc1ccccc1OC)C3=O)Cc1ccccc1OC` gave an inhibition [1] of 54.5%, a pIC50 [2] of 9.43 and a pIC50 [4] of 5.01. The pIC50 [3] was 5.72.
With `CCN(CCCCCC(=O)N1CCN(C(=O)CCCCCN(CC)Cc2ccccc2OC)CC1)Cc1ccccc1OC` the inhibition [1] was less than 5%, the pIC50 [2] was 7.59 and the pIC50 [3] was 4.97.
Molecule `CCN(CCCCCCN1C(=O)c2ccc(-c3ccc4c(c3)C(=O)N(CCCCCCN(CC)Cc3ccccc3OC)C4=O)cc2C1=O)Cc1ccccc1OC` has an inhibition [1] of 16.5%, a pIC50 [2] of 7.85 and a pIC50 [3] of 6.53.
With `CCN(CCCCCCN1CCN(CCCCCCN(CC)Cc2ccccc2OC)C1=O)Cc1ccccc1OC` the inhibition [1] was less than 5%, the pIC50 [2] was 7.14 and the pIC50 [3] was 6.06.
Molecule `CCN(CCCCCC(=O)N[C@H]1CC[C@H](NC(=O)CCCCCN(CC)Cc2ccccc2OC)CC1)Cc1ccccc1OC` has a pIC50 [2] of 5.07 and a pIC50 [3] of 4.60.
Molecule `CCN(CCCCCC(=O)N1Cc2ccc3c4c(ccc(c24)C1)CN(C(=O)CCCCCN(CC)Cc1ccccc1OC)C3)Cc1ccccc1OC` has an inhibition [1] of 12.7%, a pIC50 [2] of 8.32 and a pIC50 [3] of 5.98.
For `CCN(CCCCCC(=O)N1CCC(C2CCN(C(=O)CCCCCN(CC)Cc3ccccc3OC)CC2)CC1)Cc1ccccc1OC`, the inhibition [1] was 13.7%.
Work on `CCN(CCCCCC(=O)N[C@H]1CCCC[C@H]1NC(=O)CCCCCN(CC)Cc1ccccc1OC)Cc1ccccc1OC` yielded a pIC50 [2] of 5.38 and a pIC50 [3] of 4.51.
Molecule `CCN(CCCCCCN1CCN(CCCCCCN(CC)Cc2ccccc2OC)C(=O)C1=O)Cc1ccccc1OC` has a pIC50 [2] of 7.16 and a pIC50 [3] of 4.99.
With `CCN(CCCCCCN1C(=O)c2cccc3cccc(c23)C1=O)Cc1ccccc1OC` the inhibition [1] was less than 5%, the pIC50 [2] was 7.27 and the pIC50 [3] was 6.38.
